The values below come from US20130303500A1, “COMPOUNDS AND METHODS FOR TREATING NEOPLASIA” (Medexis S.A., priority 2010, published 2013).

In assay [1] the target is Na+/K+-ATPase (Adenosine 5′-Triphosphatase isolated from porcine cerebral cortex). Description: Na+/K+-ATPase inhibitory activity, colorimetric Adenosine 5′-Triphosphatase Enzymatic Assay (Sigma). Format: biochemical. The following applies: enzyme from porcine cerebral cortex, 0.5 units/ml. The method, then:
The compound inhibitory effect on ATPase activity was assessed in vitro using the colorimetric Adenosine 5′-Triphosphatase Enzymatic Assay of Sigma (St. Louis, Mo.) according to the manufacturer's instructions. This assay utilizes Adenosine 5′-Triphosphatase isolated from porcine cerebral cortex. Each reaction was performed in a final volume of […] using 0.5 units/ml enzyme in the presence of the different inhibitors. […] IC50 values were determined using the Origin® program software (OriginLab, Northampton, Mass.).

In assay [2] the test system is NCI-ADR-RES (Ovarian) cells. Nature of the assay: Sulforhodamine B (SRB) assay, NCI-ADR-RES (multidrug resistant). Format: cell-based, human. As to conditions: 48 h. The method, then:
(§1) Sulforhodamine B (SRB) assays were performed according to standard National Cancer Institute Guidelines. Briefly, human tumor cells from different cancer panels were seeded into 96 well plates in […] (plating densities ranging from 5-40,000 cells/well depending on the doubling time of individual cell lines) in serum-containing media for twenty-four hours prior to the addition of the compounds to be assayed. After 24 hours, one plate of each cell line was fixed in situ with trichloroacetic acid (TCA). The fixed slides were used to determine the cell population for each cell line at the time of drug addition (Tz). Each compound to be tested was solubilized in dimethyl sulfoxide (DMSO) and the desired concentration was then added to the medium and diluted serially 1:10 to provide a total of five or ten drug concentrations plus control (in a final volume of 200 μL). The starting dose before any dilution was 100 uM for all compounds.
(§2) Following drug addition, each culture was incubated for forty-eight hours. The assay was terminated with the addition of cold TCA. The supernatant was discarded, and the plates were washed with tap water and air dried. SRB solution was then added to each well. After staining, the bound stain was solubilized and the absorbance was read on an automated plate reader at a wavelength of 515 nm.
(§3) Using the absorbance measurements [time zero, (Tz), control growth, (C), and test growth in the presence of drug at the ten concentration levels (Ti)], the percentage growth was calculated at each of the drug concentrations levels. Percentage growth inhibition was calculated as:
(§4) [(Ti−Tz)/(C−Tz)]×100 for concentrations for which Ti>/=Tz
(§5) [(Ti−Tz)/Tz]×100 for concentrations for which Ti<Tz.
(§6) Three dose response parameters were calculated for each experimental agent. Growth inhibition of 50% (GI50) was calculated from [(Ti−Tz)/(C−Tz)]×100=50, which was the drug concentration resulting in a 50% reduction in the net protein increase (as measured by SRB staining) in control cells during the drug. The drug concentration resulting in total growth inhibition (TGI) was calculated from Ti=Tz. The LC50 (concentration of drug resulting in a 50% reduction in the measured protein at the end of the drug treatment as compared to that at the beginning) indicating a net loss of cells following treatment was calculated from [(Ti−Tz)/Tz]×100=−50.
(§7) Values were calculated for each of these three parameters when the level of activity was reached; however, if the effect was not reached or was exceeded, the value for that parameter was expressed as greater or less than the maximum or minimum concentration tested.

Assay [3] has as its system SF268 (CNS) cells. Nature of the assay: Sulforhodamine B (SRB) assay, SF268. It counts as cell-based. As to conditions: Homo sapiens. As to the method:
as §1, §2, §3, §4, §5, §6, §7
Background: In SRB staining, fixed cells bind dye roughly in proportion to their protein.

For assay [4], the system named is PC3 (Prostate) cells. Description: Sulforhodamine B (SRB) assay, PC3. Format: cell-based. As to conditions: Homo sapiens, Prostate cell, 48 h. As to the method:
as §1, §2, §3, §4, §5, §6, §7

Assay [5] deals with membrane androgen receptor. Nature of the assay: Membrane androgen receptor competition assay with testosterone-HSA-FITC in DU145 cells. It counts as binding. On the set-up: membrane fluorescence (binding of TAC-FITC to the membrane androgen receptor): dose or concentration left out as unconfirmed. The method, then:
The detection of membrane androgen receptors using fluorescent testosterone-serum albumin conjugates was performed as described by Kampa, M et al., 2002, Faseb J 16:1429-1431, with minor modifications. The assay was used to measure the ability of a given compound to preclude binding of a fluorescent mAR ligand (testosterone-HSA-FITC conjugates) to its receptor in DU145 cells; this compound-induced effect is indicative of direct mAR binding (see Kampa et al and PCT/US2007/007913). […] Coverslips were mounted on slides by using the Slow Fade/Antifade Reagent (Molecular Probes) and studied under a LEICA DMLB microscope, equipped with the appropriate fluorescence filters and a Leica DC 300F camera. Specimens were analyzed using the Leica FW4000 computer program.
Membrane androgen receptor competition assays were performed to determine the capacity of a given compound to preclude binding of fluorescent testosterone-HSA conjugates (TAC) to the membrane androgen receptor. […] Specimens were prepared and analyzed as described above. Compounds binding to the membrane androgen receptor preclude binding of fluorescent testosterone-HSA conjugates to their target and abolish membrane-specific fluorescence.

Assay [6] concerns DU145 (Prostate) cells. Nature of the assay: MTT cell proliferation/viability assay, DU145. Format: cell-based. As to conditions: Homo sapiens, DU-145, 72 h. As to the method:
Cell proliferation/viability was assessed by the MTT [3-(4,5-dimethylthiazol-2-yl)-2,5-diphenyltetrazolium bromide] assay, which is commercially available (Sigma, St. Louis, Mo.). Cells were cultured in 96-well plates for twenty-four hours (7-10.000 cells/well) and incubated with various concentrations of the different compounds—as indicated in the Figures—in serum-containing medium (or left untreated) for seventy-two hours. At the end of incubation, the medium was aspirated and MTT dissolved in RPMI 1640 w/o phenol red was added to each well to a final concentration of 0.25 mg/ml. After four hours incubation in the dark (37° C., 5% CO2) the supernatant was discarded. The converted dye (blue formazan crystals) was solubilized by adding 200 μl dimethylsulfoxide to each well. Absorbance was measured at 550 nm with reference at 655 nm using a spectrophotometer with the respective filters. All assays were performed in triplicate.
The effect of the different compounds on the proliferation and viability of two cancer cell lines (DU145/prostate and CAKI/renal) was tested through quantitative (4,5-dimethylthiazol-2-yl)-2,5-diphenyltetrazolium bromide (MTT) assays.

As usually defined, the IC50 is the concentration that gives 50% inhibition. Usually GI50 stands for the concentration giving 50% growth inhibition. One may read the TGI as the concentration at which net growth stops. `C[C@]12CCC(=NOC3CCNC3)CC1CCC1C2CC[C@]2(C)C(=O)C(F)CC12` (stereo partly drawn) [Compound 2, (5S,10S,13S,16R)-16a-fluoro-10,13-dimethyl-3-((S)-pyrrolidin-3-yloxyimino)-tetradecahydro-2H-cyclopenta[a]phenanthren-17(14H)-one]: the results for the IC50 in assay [1] and in assay [6] were 73 nM and 250 nM, respectively. In addition, the CC50 came out at 598 nM in assay [2] (Homo sapiens, NCI/ADR-RES, read-out: LC50); 112 nM in assay [3] (SF-268, 48 h, read-out: LC50); 962 nM in assay [4] (read-out: LC50). The GI50 in assay [2] (Homo sapiens, NCI-ADR-RES Ovarian, SRB) came out at 29 nM; in assay [3] (SF-268, SF268 CNS, SRB, 48 h), 3 nM; in assay [4] (PC3 Prostate, SRB), 46 nM. This compound gave a TGI in assay [2] (NCI-ADR-RES Ovarian, SRB) of 94 nM. For the same compound, the IC (TGI) in assay [3] (SF-268, SF268 CNS, SRB, 48 h) came to 43 nM; in assay [4] (PC3 Prostate, SRB) it was 414 nM. Moreover, the “binding to the membrane androgen receptor (conclusion)” value in assay [5] (DU145 cells) is given as “capable of binding to the membrane androgen receptor”. Moreover, the “membrane fluorescence (binding of TAC-FITC to the membrane androgen receptor)” value in assay [5] (DU145 cells pre-treated with compound for 30 minutes, then testosterone-HSA-FITC) is “largely reduced”.
